Molecules are shown by their SMILES.

In the assay the target is T1, ACAT in M.phi. (acyl-CoA: cholesterol acyl transferase) (Mus musculus, UniProt Q61263).
T1 construct: endogenous in cells; host or cells: primary adherent peritoneal macrophages from unstimulated female DDY mice
T1 sequence (Q61263 1-540): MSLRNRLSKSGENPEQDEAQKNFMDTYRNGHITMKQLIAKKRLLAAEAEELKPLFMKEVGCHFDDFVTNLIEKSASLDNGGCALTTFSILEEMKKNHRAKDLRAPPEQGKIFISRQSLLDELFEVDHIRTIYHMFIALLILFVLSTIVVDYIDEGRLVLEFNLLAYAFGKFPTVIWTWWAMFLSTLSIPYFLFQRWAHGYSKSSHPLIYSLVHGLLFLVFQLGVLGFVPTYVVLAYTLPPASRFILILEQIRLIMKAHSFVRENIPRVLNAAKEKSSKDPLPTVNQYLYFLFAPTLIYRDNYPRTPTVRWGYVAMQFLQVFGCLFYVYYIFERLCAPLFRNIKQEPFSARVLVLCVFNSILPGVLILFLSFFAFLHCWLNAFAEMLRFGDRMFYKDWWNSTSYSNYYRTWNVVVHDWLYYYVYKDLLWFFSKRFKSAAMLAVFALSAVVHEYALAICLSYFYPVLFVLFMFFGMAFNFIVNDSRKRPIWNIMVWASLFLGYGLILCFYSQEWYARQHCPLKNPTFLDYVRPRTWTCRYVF
The experiment in a line: Inhibition of ACAT in mouse macrophages (M.phi.), cholesterol [14C]oleate formation. Set-up: dose or concentration left out as unconfirmed. The settings on record: mouse peritoneal macrophages, beta-VLDL, 37° C., 3 hours. The format is cell-based. The protocol: Blood was obtained [using the anticoagulant ethylene diamine tetraacetic acid (5 mM)] from Japanese White rabbits which had been fed a 2% w/w cholesterol diet for 2 weeks and then fasted overnight prior to removing the blood. β-VLDL (d<1.006 g/ml) was isolated by ultracentrifugation from the plasma according to the method of Hatch and Lees [Hatch, F. T. and Lees, R. S., Adv. Lipid Res., 6, 1-68 (1968)] and dialyzed against 10 mM of a sodium phosphate buffer (pH 7.4) containing 150 mM sodium chloride at 4° C.
Peritoneal cells were harvested from unstimulated female DDY mice (body weight 20-30 g) in phosphate buffer saline (PBS) as described by Edelson and Cohn [Edelson, P. J. and Cohn, Z. A., 1976, IN VITRO Methods in Cell-Mediated and Tumor Immunity, eds, Bloon, B. R. and DAvid, J. R., (Academic, New York), 333-340.]. The fluid from the mice was pooled and the cells were collected by centrifugation at 400× g, for 10 minutes at 4° C., and washed once with PBS. The cells were resuspended in Dulbecco's modified Eagle's medium (DMEM) containing 10% (vol/vol) fetal calf serum (FCS), penicillin (100 units/ml), and streptomycin (100 μg/ml) at a final concentration of 3×10^6 cells per ml. Aliquots (1 ml) of this cell suspension were dispersed onto plastic Petri dishes (35×10 mm) and then incubated in a CO2 incubator (5% CO2 /95% air) at 37° C. for 2 hours. Each dish was washed twice with PBS without serum to remove nonadherent cells. The cells were washed twice with 2 ml of PBS and used for the experiment.
Inhibition of ACAT in M.phi. was determined according to the method described by Brown et al. [Brown, M. S., Goldstein J. L., Krieger, M., Ho, Y. K. and Anderson, R. G. W. (1979) J. Cell Biol., 82, 597-613.]. Cholesterol reacylation was initiated by adding β-VLDL (final concentration 50 μg/ml cholesterol), [^14 C]oleate-albumin complex (final concentrations: 0.2 mM oleate and 0.6 mg/ml albumin) and a test compound dissolved in ethanol into the M.phi. monolayer, and the preparation was incubated at 37° C. for 3 hours in a CO2 incubator. Cells were washed three times with PBS and cellular lipid was extracted with 1 ml hexane/isopropanol (3:2, vol/vol). A lipid extract was evaporated in a stream of nitrogen. Cholesterol [^14 C]oleated was seperated by thin layer chromatography through silica gel using a 85:15:1 by volume mixture of hexane, diethyl ether and acetic acid as developing solvents. The ACAT activity in M.phi. was determined by measuring the radioactivity and an inhibition rate (%) was calculated by comparing a control activity with those of the test compound at given concentrations.
Broadly, the inhibition is the drop in the measured response relative to a control, in per cent. `CC(C)(C)c1ccc(CCC(O)COCCC2CCCCC2)cc1NC(=O)CC1c2ccccc2Oc2ccccc21` (centres unmarked) [Example 219, N-{2-t-Butyl-5-[4-(2-cyclohexylethoxy)-3-hydroxybutyl]phenyl}-2-(9H-xanthen-9-yl)acetamide] had an inhibition of 86%.

Molecule `CC(C)(C)c1ccc(CCC(O)CCOC2CCCCC2)cc1NC(=O)CC1c2ccccc2Oc2ccccc21` (centres unmarked) [Example 217, N-[2-t-Butyl-5-(5-cyclohexyloxy-3-hydroxypentyl)phenyl]-2-(9H-xanthen-9-yl)acetamide] gave an inhibition of 74%. In turn, `CC(C)c1cccc(CCC(O)CCCC2CCCCC2)c1NC(=O)CC1c2ccccc2Oc2ccccc21` (centres unmarked) [Example 125, N-[2-Isopropyl-6-(6-cyclohexyl-3-hydroxyhexyl)phenyl]-2-(9H-xanthen-9-yl)acetamide] returned an inhibition of 85%. The same measure for `CC(C)(C)c1ccc(CCC(O)CCC2CCCCC2)cc1NC(=O)CC1c2ccccc2Oc2ccccc21` (centres unmarked) [Example 26, N-[2-t-Butyl-5-(5-cyclohexyl-3-hydroxypentyl)phenyl]-2-(9H-xanthen-9-yl)acetamide]: 77%; for `CC(C)(C)c1ccc(CCC(O)CCCCC2CCCCC2)cc1NC(=O)CC1c2ccccc2Oc2ccccc21` (centres unmarked) [Example 44, N-[2-t-Butyl-5-(7-cyclohexyl-3-hydroxyheptyl)phenyl]-2-(9H-xanthen-9-yl)acetamide]: 89%. The same measure for `CC(C)c1cccc(C(C)C)c1NC(=O)CC1c2ccccc2Oc2ccccc21` [Compound A, reference compound]: 51%; for `CC(C)(C)c1ccc(CCC(O)C2CCCCCC2)cc1NC(=O)CC1c2ccccc2Oc2ccccc21` (centres unmarked) [Example 98, N-[2-t-Butyl-5-(3-cycloheptyl-3-hydroxypropyl)phenyl]-2-(9H-xanthen-9-yl)acetamide]: 81%; for `CC(C)(C)c1ccc(CCC(=O)CC2CCCCC2)cc1NC(=O)CC1c2ccccc2Oc2ccccc21` [Example 13, N-[2-t-Butyl-5-(4-cyclohexyl-3-oxobutyl)phenyl]-2-(9H-xanthen-9-yl)acetamide]: 80%.

(Values after patent publication US5614550A, “Amide and urea derivatives having anti-hypercholesteremic activity, their preparation and their therapeutic uses” (Sankyo Company, Limited, priority 1993, dated 1997).)
